Assay results from patent US20070128217A1 (priority 2003, published 2007).

Key:
[1] = tested on: antibodies in sera from SARS patients (sera 1a, 1b, 2, 6, 37, 62, London, SARS-yellow, SARS-green); format: binding, human; parameters: Binding of serum 6 to linear peptides of protein X1 of SARS-CoV Urbani / Binding of serum 37 to linear peptides of protein X1 of SARS-CoV Urbani / Binding of serum 6 to looped/cyclic peptide (PEPSCAN-ELISA) / Binding of serum 37 to looped/cyclic peptide (PEPSCAN-ELISA) / Binding of serum 37 to looped/cyclic peptides of protein X1 of SARS-CoV Urbani / Binding of serum 6 to linear peptides of protein X2 / Binding of serum 37 to linear peptides of protein X2 / Binding of serum 37 to looped/cyclic peptides of protein X2 of SARS-CoV Urbani / Binding of serum 6 to linear peptides of protein M of SARS-CoV Urbani / Binding of serum 37 to linear peptides of protein M of SARS-CoV Urbani / Binding of serum 6 to looped/cyclic peptides of protein M of SARS-CoV Urbani / Binding of serum 37 to looped/cyclic peptides of protein M of SARS-CoV Urbani / Binding of serum 6 to linear peptides of protein X3 of SARS-CoV Urbani / Binding of serum 37 to linear peptides of protein X3 of SARS-CoV Urbani / Binding of serum 37 to looped/cyclic peptides of protein X3 of SARS-CoV Urbani / Binding of serum 6 to linear peptides of protein X4 of SARS-CoV Urbani / Binding of serum 37 to linear peptides of protein X4 of SARS-CoV Urbani / Binding of serum 37 to looped/cyclic peptides of protein X4 of SARS-CoV Urbani / Binding of serum 6 to linear peptides of protein X5 of SARS-CoV Urbani / Binding of serum 37 to linear peptides of protein X5 of SARS-CoV Urbani / Binding of serum 37 to looped/cyclic peptides of protein X5 of SARS-CoV Urbani / Binding of serum 6 to linear peptides of protein N of SARS-CoV Urbani / Binding of serum 37 to linear peptides of protein N of SARS-CoV Urbani / Binding of serum 6 to linear peptide (PEPSCAN-ELISA) / Binding of serum 1a to looped/cyclic peptides of protein N of SARS-CoV Urbani / Binding of serum 1b to looped/cyclic peptides of protein N of SARS-CoV Urbani / Binding of serum 2 to looped/cyclic peptides of protein N of SARS-CoV Urbani / Binding of serum 6 to looped/cyclic peptides of protein N of SARS-CoV Urbani / Binding of serum 37 to looped/cyclic peptides of protein N of SARS-CoV Urbani / Binding of serum 62 to looped/cyclic peptides of protein N of SARS-CoV Urbani / Binding of serum London to looped/cyclic peptides of protein N of SARS-CoV Urbani / Binding of serum SARS-green to looped/cyclic peptides of protein N of SARS-CoV Urbani: unit not given here
[2] = tested on: control sera (pooled serum of ten healthy LUMC hospital workers; commercial negative donor pooled serum from the Dutch bloodbank); format: binding, human; parameters: Binding of Control serum LUMC to linear peptides / Binding of Control serum Blood-bank to linear peptides / Binding of Control serum LUMC to looped peptides / Binding of Control Serum Blood-Bank to Looped peptides / Binding of Control serum LUMC to linear peptides of the protein M of SARS-CoV Urbani / Binding of Control serum Blood-bank to linear peptides of the protein M of SARS-CoV Urbani / Binding of Control serum LUMC to looped peptides of the protein M of SARS-CoV Urbani / Binding of Control Serum Blood-Bank to Looped peptides of the protein M of SARS-CoV Urbani: unit not given here
[3] = tested on: rabbit serum obtained by immunizing a rabbit with the SARS-CoV strain Frankfurt 1; format: binding; parameters: Binding of a rabbit serum to linear peptides / Binding of a rabbit serum to looped peptides / Rabbit serum linear peptides / Rabbit serum looped peptides / Binding of a rabbit serum to linear peptides of protein N of SARS-CoV Urbani (Rabbit serum linear peptides) / Binding of a rabbit serum to looped/cyclic peptides of protein N of SARS-CoV Urbani (Rabbit serum looped peptides): unit not given here
[4] = tested on: recombinant human anti-SARS-CoV antibody 03-018; format: binding; parameters: Binding of antibody 03-018 to linear peptides of the N protein of SARS-CoV Urbani / Binding of antibody 03-018 to looped/cyclic peptides of the N protein of SARS-CoV Urbani: unit not given here

Sequence | Binding of serum 1a to linear peptides of protein N of SARS-CoV Urbani [1] | Binding of serum 1a to looped/cyclic peptides of protein N of SARS-CoV Urbani [1] | Binding of serum 1b to linear peptides of protein N of SARS-CoV Urbani [1] | Binding of serum 1b to looped/cyclic peptides of protein N of SARS-CoV Urbani [1] | Binding of serum 2 to linear peptides of protein N of SARS-CoV Urbani [1] | Binding of serum 2 to looped/cyclic peptides of protein N of SARS-CoV Urbani [1] | Binding of serum 6 to linear peptides of protein N of SARS-CoV Urbani [1] | Binding of serum 6 to looped/cyclic peptides of protein N of SARS-CoV Urbani [1] | Binding of serum 37 to linear peptides of protein N of SARS-CoV Urbani [1] | Binding of serum 37 to looped/cyclic peptides of protein N of SARS-CoV Urbani [1] | Binding of serum 62 to linear peptides of protein N of SARS-CoV Urbani [1] | Binding of serum 62 to looped/cyclic peptides of protein N of SARS-CoV Urbani [1] | Binding of serum London to linear peptides of protein N of SARS-CoV Urbani [1] | Binding of serum London to looped/cyclic peptides of protein N of SARS-CoV Urbani [1] | Binding of serum SARS-green to linear peptides of protein N of SARS-CoV Urbani [1] | Binding of serum SARS-green to looped/cyclic peptides of protein N of SARS-CoV Urbani [1] | Binding of a rabbit serum to linear peptides of protein N of SARS-CoV Urbani (Rabbit serum linear peptides) [3] | Binding of a rabbit serum to looped/cyclic peptides of protein N of SARS-CoV Urbani (Rabbit serum looped peptides) [3] | Binding of antibody 03-018 to linear peptides of the N protein of SARS-CoV Urbani [4] | Binding of antibody 03-018 to looped/cyclic peptides of the N protein of SARS-CoV Urbani [4] | further results
RPQGLPNNTASWFTA | 0.3 | 0.5 | 0.1 | 0.3 | 0.2 | 0.5 | 0.2 | 0.4 | 0.7 | 0.9 | 0.7 | 0.8 | 0.5 | 0.5 | 0.3 | 0.5 | 0.1 | 0.5 | 0.1 | 0.2 | Binding of serum SARS-yellow to linear peptides of protein N of SARS-CoV Urbani [1]: 0.4; Binding of serum SARS-yellow to looped/cyclic peptides of protein N of SARS-CoV Urbani [1]: 0.7; Binding of Control Serum Blood-Bank to Looped peptides [2]: 0.9; Binding of Control serum Blood-bank to linear peptides [2]: 0.8; Binding of Control serum LUMC to linear peptides [2]: 0.8; Binding of Control serum LUMC to looped peptides [2]: 0.9
RQGTDYKHWPQIAQF | 0.3 | 0.5 | 0.2 | 0.4 | 0.2 | 0.5 | 0.2 | 0.3 | 0.7 | 0.8 | 0.8 | 0.9 | 0.7 | 0.5 | 0.3 | 0.4 | 0.2 | 0.4 | 0.1 | 0.2 | Binding of serum SARS-yellow to linear peptides of protein N of SARS-CoV Urbani [1]: 0.6; Binding of serum SARS-yellow to looped/cyclic peptides of protein N of SARS-CoV Urbani [1]: 0.8; Binding of Control Serum Blood-Bank to Looped peptides [2]: 0.7; Binding of Control serum Blood-bank to linear peptides [2]: 0.7; Binding of Control serum LUMC to linear peptides [2]: 0.7; Binding of Control serum LUMC to looped peptides [2]: 0.8
RQKKQPTVTLLPAAD | 0.3 | – | 0.2 | – | 0.2 | – | 0.2 | – | 0.7 | – | 0.8 | – | 0.6 | – | 0.6 | – | 0.1 | 0.4 | 0.1 | 0.2 | Binding of serum SARS-yellow to linear peptides of protein N of SARS-CoV Urbani [1]: 0.6; Recognition of the peptide by sera of SARS-CoV infected individuals, and form (linear, looped/cyclic) in which it is recognized [1]: recognized in looped/cyclic form; Control Serum Blood-Bank Looped peptides [2]: 0.6; Control serum Blood-bank linear peptides [2]: 0.7; Control serum LUMC linear peptides [2]: 0.8; Control serum LUMC looped peptides [2]: 0.5
RRATRRVRGGDGKMK | 0.2 | 0.2 | 0.1 | 0.1 | 0.3 | 0.1 | 0.3 | 0.1 | 0.8 | 0.4 | 0.7 | 0.3 | 0.5 | 0.2 | 0.3 | 0.0 | 0.6 | 0.1 | 0.1 | 0.2 | Binding of serum SARS-yellow to linear peptides of protein N of SARS-CoV Urbani [1]: 0.6; Binding of serum SARS-yellow to looped/cyclic peptides of protein N of SARS-CoV Urbani [1]: 0.2; Binding of Control Serum Blood-Bank to Looped peptides [2]: 0.4; Binding of Control serum Blood-bank to linear peptides [2]: 0.8; Binding of Control serum LUMC to linear peptides [2]: 0.8; Binding of Control serum LUMC to looped peptides [2]: 0.3
RRGPEQTQGNFGDQD | – | 0.3 | – | 0.2 | – | 0.2 | – | 0.1 | – | 0.4 | – | 0.2 | – | 0.2 | – | 0.6 | 0.1 | 0.1 | 0.1 | 0.2 | Binding of serum SARS-yellow to looped/cyclic peptides of protein N of SARS-CoV Urbani [1]: 0.4; Recognition of the peptide by sera of SARS-CoV infected individuals, and form (linear, looped/cyclic) in which it is recognized [1]: recognized in linear form; Binding of Control Serum Blood-Bank to Looped peptides [2]: 0.3; Binding of Control serum Blood-bank to linear peptides [2]: 0.6; Binding of Control serum LUMC to linear peptides [2]: 0.6; Binding of Control serum LUMC to looped peptides [2]: 0.4
